Data on 1 compound can be found in ChEMBL document CHEMBL4665759, “Discovery of substituted 3H-pyrido[2,3-d]pyrimidin-4-ones as potent, biased, and orally bioavailable sst2 agonist” (Bioorg Med Chem Lett, 2020).

One data set concerns Rattus norvegicus. The data set can be described thus: Suppression of growth hormone production in GHRH-challenged sc dosed Sprague-Dawley rat plasma administered GHRH at 1 to 8 hrs post dose and measured 5 mins after each GHRH challenge by sandwich ELISA. The note with it: dose mg/kg 0.1-10, time hrs 1-8. In kind it is functional, organism-based. For orientation: In an ELISA, binding on a coated surface is turned into a signal by an enzyme label.

Data set [1] in a line: Oral bioavailability in Sprague-Dawley rat at 10 mg/kg. The format is ADME, organism-based. The note with it: in vivo.
The nature of data set [2]: AUC (0 to infinity) in Sprague-Dawley rat at 10 mg/kg, po. The format is ADME, organism-based. Conditions: in vivo. The arrangement: time infinity, route oral, dose 10 mg/kg.
Data set [3] is described as follows: Cmax in Sprague-Dawley rat at 10 mg/kg, po. The format is ADME, organism-based. The arrangement: route oral, dose 10 mg/kg. Conditions: in vivo.
The nature of data set [4]: Volume of distribution at steady state in Sprague-Dawley rat at 5 mg/kg, iv. The format is ADME, organism-based. The note with it: in vivo, read-out: Vdss.
The nature of data set [5]: Half life in Sprague-Dawley rat at 5 mg/kg, iv. The format is ADME, organism-based. Conditions: in vivo.
Data set [6] is described as follows: Half life in rat liver microsomes. The format is ADME, Microsome. In general terms: Liver microsomes are a subcellular fraction often used to study metabolism.
Data set [7] can be described thus: Observed clearance in Sprague-Dawley rat at 5 mg/kg, iv. The format is ADME, organism-based. Conditions: in vivo.
Another data set deals with Cytochrome P450 3A4 (Homo sapiens, UniProt P08684). Description: Inhibition of CYP3A4 (unknown origin). In kind it is ADME.
Data set [8] can be described thus: Half life in human liver microsomes. In kind it is ADME, Microsome.
The target of another data set is Cytochrome P450 2C19 (Homo sapiens, UniProt P33261). The data set can be described thus: Inhibition of CYP2C19 (unknown origin). The format is ADME.
A further data set deals with Cytochrome P450 2C9 (Homo sapiens, UniProt P11712). Description: Inhibition of CYP2C9 (unknown origin). The format is ADME.
Data set [9] has as its target Voltage-gated inwardly rectifying potassium channel KCNH2 (Homo sapiens, UniProt Q12809). The data set can be described thus: Inhibition of human ERG.
For data set [10], the target named is Somatostatin receptor type 5 (Homo sapiens, UniProt P35346). The data set can be described thus: Agonist activity at human SST5.
The target of data set [11] is Somatostatin receptor type 1 (Homo sapiens, UniProt P30872). Description: Agonist activity at human SST1.
Data set [12] concerns the target Somatostatin receptor type 3 (Homo sapiens, UniProt P32745). Description: Agonist activity at human SST3.

Sequence of Somatostatin receptor type 5 (P35346 whole entry): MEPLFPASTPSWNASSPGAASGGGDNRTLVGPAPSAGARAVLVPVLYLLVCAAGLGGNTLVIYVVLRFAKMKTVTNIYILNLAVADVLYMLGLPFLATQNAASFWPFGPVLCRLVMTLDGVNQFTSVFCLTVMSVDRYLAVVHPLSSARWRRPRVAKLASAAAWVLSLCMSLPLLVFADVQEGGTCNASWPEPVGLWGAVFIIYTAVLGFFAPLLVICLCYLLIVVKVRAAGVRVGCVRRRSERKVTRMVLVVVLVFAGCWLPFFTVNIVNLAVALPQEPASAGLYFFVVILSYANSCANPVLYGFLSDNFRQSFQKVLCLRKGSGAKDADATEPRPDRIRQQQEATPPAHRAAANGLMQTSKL
Sequence of Somatostatin receptor type 3 (P32745 whole entry): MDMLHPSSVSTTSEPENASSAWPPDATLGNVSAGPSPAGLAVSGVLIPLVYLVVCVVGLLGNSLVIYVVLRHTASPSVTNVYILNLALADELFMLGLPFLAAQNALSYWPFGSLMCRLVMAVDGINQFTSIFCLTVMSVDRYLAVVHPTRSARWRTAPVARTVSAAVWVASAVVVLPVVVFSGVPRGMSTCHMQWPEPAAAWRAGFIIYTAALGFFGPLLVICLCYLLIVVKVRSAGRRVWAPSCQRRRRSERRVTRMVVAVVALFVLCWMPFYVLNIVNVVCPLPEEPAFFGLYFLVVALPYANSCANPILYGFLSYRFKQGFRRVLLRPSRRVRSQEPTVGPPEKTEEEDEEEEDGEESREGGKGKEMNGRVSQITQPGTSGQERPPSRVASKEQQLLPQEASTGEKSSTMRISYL
Sequence of Cytochrome P450 2C19 (P33261 whole entry): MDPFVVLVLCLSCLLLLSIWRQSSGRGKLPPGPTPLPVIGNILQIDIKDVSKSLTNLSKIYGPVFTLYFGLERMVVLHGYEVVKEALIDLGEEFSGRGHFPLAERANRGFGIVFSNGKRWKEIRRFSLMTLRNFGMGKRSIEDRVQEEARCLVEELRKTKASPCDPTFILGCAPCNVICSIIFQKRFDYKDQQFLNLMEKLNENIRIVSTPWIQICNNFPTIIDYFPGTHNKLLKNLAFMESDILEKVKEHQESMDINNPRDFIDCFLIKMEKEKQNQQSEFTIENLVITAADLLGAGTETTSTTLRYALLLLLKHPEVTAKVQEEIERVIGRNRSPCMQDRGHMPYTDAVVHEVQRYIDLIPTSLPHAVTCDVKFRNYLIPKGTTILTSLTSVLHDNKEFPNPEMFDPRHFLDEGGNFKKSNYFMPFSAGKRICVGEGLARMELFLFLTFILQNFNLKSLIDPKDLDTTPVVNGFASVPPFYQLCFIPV
Sequence of Voltage-gated inwardly rectifying potassium channel KCNH2 (Q12809 whole entry): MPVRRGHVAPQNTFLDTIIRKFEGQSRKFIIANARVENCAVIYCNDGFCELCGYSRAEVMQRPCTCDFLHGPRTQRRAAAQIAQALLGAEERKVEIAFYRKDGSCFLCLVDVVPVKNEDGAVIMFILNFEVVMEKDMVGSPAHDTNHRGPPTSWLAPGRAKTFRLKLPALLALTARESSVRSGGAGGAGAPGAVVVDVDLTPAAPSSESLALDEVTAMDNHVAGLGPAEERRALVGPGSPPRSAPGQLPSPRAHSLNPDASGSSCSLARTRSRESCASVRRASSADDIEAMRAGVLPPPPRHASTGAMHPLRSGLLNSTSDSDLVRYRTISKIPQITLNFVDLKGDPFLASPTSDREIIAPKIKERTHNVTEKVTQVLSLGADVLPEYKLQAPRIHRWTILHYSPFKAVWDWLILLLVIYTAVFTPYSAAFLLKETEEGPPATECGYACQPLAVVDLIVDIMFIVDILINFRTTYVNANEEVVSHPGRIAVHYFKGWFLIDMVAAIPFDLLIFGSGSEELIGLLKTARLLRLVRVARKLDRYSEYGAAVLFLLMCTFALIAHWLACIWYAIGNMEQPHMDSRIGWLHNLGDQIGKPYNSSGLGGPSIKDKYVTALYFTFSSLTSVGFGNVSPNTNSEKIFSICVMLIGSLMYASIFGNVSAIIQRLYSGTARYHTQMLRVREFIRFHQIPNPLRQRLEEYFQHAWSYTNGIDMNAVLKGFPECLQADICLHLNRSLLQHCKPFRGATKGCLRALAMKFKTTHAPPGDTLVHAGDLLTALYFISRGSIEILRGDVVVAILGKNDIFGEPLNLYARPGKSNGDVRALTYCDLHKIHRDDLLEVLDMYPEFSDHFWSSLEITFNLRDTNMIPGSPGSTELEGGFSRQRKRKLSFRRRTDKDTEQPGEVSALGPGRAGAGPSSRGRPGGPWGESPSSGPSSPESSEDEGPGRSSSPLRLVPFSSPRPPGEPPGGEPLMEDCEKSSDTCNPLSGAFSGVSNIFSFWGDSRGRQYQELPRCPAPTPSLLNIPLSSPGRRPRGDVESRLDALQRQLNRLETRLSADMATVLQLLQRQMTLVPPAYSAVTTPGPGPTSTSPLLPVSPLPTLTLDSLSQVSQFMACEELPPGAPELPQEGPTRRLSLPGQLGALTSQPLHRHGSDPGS
Sequence of Cytochrome P450 3A4 (P08684 whole entry): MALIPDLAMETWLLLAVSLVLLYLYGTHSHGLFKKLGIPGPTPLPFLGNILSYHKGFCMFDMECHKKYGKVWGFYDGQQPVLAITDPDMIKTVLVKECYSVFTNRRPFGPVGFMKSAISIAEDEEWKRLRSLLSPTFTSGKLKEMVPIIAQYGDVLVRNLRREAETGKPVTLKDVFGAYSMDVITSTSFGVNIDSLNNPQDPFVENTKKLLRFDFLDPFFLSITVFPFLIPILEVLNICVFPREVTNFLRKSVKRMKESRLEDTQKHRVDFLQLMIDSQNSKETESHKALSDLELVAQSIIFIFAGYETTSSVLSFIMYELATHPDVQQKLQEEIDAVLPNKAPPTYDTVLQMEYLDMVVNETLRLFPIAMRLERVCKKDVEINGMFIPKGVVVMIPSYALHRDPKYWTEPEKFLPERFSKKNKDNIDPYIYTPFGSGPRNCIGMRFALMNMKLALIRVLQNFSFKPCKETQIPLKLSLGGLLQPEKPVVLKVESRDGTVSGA
Sequence of Cytochrome P450 2C9 (P11712 whole entry): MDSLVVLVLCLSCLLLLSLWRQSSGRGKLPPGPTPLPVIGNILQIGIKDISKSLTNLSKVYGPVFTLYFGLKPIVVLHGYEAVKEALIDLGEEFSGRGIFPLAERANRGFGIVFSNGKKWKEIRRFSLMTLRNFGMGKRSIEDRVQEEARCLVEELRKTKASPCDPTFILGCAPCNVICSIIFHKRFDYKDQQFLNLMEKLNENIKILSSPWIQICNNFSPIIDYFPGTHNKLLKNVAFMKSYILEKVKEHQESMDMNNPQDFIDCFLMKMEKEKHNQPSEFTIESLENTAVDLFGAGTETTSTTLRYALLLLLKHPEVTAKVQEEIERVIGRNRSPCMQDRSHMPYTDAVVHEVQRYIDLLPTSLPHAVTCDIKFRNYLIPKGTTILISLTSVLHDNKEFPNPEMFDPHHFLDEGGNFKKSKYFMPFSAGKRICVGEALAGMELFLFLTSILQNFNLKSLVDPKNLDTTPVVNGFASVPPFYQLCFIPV
Sequence of Somatostatin receptor type 1 (P30872 whole entry): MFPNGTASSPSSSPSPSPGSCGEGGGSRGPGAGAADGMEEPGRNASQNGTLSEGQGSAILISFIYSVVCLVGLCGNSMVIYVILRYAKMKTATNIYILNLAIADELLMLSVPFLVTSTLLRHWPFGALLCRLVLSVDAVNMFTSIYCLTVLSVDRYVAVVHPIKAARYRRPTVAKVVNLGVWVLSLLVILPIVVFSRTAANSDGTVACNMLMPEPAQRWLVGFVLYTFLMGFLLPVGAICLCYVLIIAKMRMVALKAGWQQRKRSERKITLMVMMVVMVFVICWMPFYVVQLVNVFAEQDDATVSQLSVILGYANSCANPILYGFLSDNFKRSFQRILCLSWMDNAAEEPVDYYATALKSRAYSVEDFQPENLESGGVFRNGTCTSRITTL

Take `Cc1cc(Cl)cc(-c2cnc3ncn(-c4cc(O)cc(F)c4)c(=O)c3c2CN(C)C[C@@H]2CCCN2)c1`: the Activity result with Rattus norvegicus is “Dose-dependent effect”. The bioavailability (in general, the share of a dose that reaches the circulation, judged against a reference dose that is usually intravenous) in [1] is 14%. In [2], the AUC(0-inf) (usually total exposure, with the tail of the curve extrapolated) was 329 ng·h/mL. For the same compound, in data set [3], the Cmax (commonly the maximum level reached in the sampled fluid or tissue) turned out to be 43 ng/mL. Further, the Vd in data set [4] amounted to 11.9 L/kg. The half-life (as a rule, the time in which the quantity being followed falls by half) in [5] was 204 min; in [6] it was 23 min; in data set [8], 35 min. In addition, in [7], the clearance (commonly the volume of plasma or blood freed of the substance per unit of time) amounted to 73 mL/min/kg. Also, the IC50 (commonly the concentration that gives 50% inhibition) is over 10000 nM against Cytochrome P450 3A4, over 10000 nM at Cytochrome P450 2C19, over 10000 nM against Cytochrome P450 2C9 and 3160 nM in [9]. The EC50 (in general, the concentration at which the effect is half-maximal) is over 1000 nM in data set [10], 316 nM in data set [11] and 7.94 nM in [12].
